In brackets after ≈: the same amount, converted by molar mass. Where two headings read alike, the source gives them in different places.
How the values were obtained:
Type in all cases: cell-based
[1] = test system: P. aeruginosa [CMCC(B)10104]; assay: Broth dilution antibacterial assay (MIC, MBC by subculture) against P. aeruginosa; settings: Pseudomonas aeruginosa; for MIC: 18 h, broth dilution, 37°C, triplicate; for MBC: lowest concentration killing 99.9% of original inoculum
Description: (§1) The conventional broth dilution assay was used to evaluate the antibacterial activities. Three clinical pathogens namely MRSA, P. aeruginosa [CMCC(B)10104], and K. pneumoniae [CMCC(B)46117] were cultured and left overnight to grow. Each pathogenic culture was then diluted in 0.9% saline to an inoculum density of 5 × 10^5 cfu by comparison with a McFarland standard. Tetracycline was dissolved in Mueller–Hinton broth with a starting concentration of 512 μg/mL and was used as positive control whereas methanol was used as negative control. A total of 125 μL of MHB was distributed into the 96-well plates. A total of 125 μL of the different samples were dispensed into well 1 and serially diluted across the plate. Ultimately, addition of 125 μL of the bacterial inoculum was performed and the plates were incubated at 37°C for 18 h. The bacteriostatic abilities of the compounds were noted as MICs which were done in triplicate. Five milligrams per milliliter of methanolic solution of 3-[4,5-dimethylthiazol-2-yl]-2,5-diphenyltetrazolium bromide (MTT; Lancaster) was used to detect bacterial growth by a change in color from yellow to blue ([Appendino et al., 2008]).
(§2) Ten microliters of broth with no visible growth were taken from the wells and sub-cultured on nutrient agar plates. The negative control consisted of nutrient agar and the inoculum which was then compared with the number of colonies on the agar. The bactericidal abilities of the compounds were noted as MBCs which was equal to the lowest concentration of the samples which killed 99.9% of the original inoculum ([Clinical and Laboratory Standards Institute, 2014]).

[2] = test system: K. pneumoniae [CMCC(B)46117]; assay: Broth dilution antibacterial assay (MIC, MBC by subculture) against K. pneumoniae; settings: Klebsiella pneumoniae
Description: as §1, §2

[3] = test system: methicillin resistant Staphylococcus aureus (MRSA); assay: Broth dilution antibacterial assay (MIC, MBC by subculture) against MRSA; settings: for MIC: 18 h
Description: as §1, §2

[4] = test system: Human liver cell line LO2; assay: Cytotoxicity assay (MTT); settings: normal liver cell line LO2, MTT, triplicate
Description: Human liver cell line LO2 was obtained from the Institute of Biochemistry and Cell Biology (Chinese Academy of Sciences). LO2 cells were maintained in RPMI 1640 containing 10% fetal bovine serum (FBS), 100 units/mL penicillin and 100 units/mL streptomycin. All the cells were grown in a humidified cell incubator with an atmosphere of 5% CO2 at 37°C and subcultured with 0.25% trypsin + 0.02% EDTA. MTT, dimethyl sulfoxide (DMSO), ribonuclease (RNase), propidium iodide (PI), Annexin V-FITC/PI kit were obtained from Sigma. RPMI 1640, DMEM, FBS were purchased from Gibco. Hoechst, trypsin, and the pan caspase inhibitor z-VAD-FMK were obtained from Beyotime Institute of Biotechnology. Compounds were dissolved in DMSO and diluted to the proper concentrations before use, with the concentration of DMSO kept below 0.1% in all assays. Cell viability was measured by the MTT method as previously described, with some modifications ([Jiang et al., 2013]). Briefly, cells were seeded in 96-well microtiter plates at a density of 5 × 10^3 cells/well for 24 h. After drug treatment for the indicated times, cells were incubated with MTT (0.5 mg/mL) for 4 h. The formazan precipitate was dissolved in 150 μL DMSO, and the absorbance was detected at 490 nm with a Sunrise microplate reader (Tecan Group Ltd.). DMSO (0.1%) was used as negative control for all assays. Each test was performed in triplicate.

[5] = broth dilution, 37°C, 18 h, triplicate
[6] = lowest concentration killing 99.9% of original inoculum, read-out: MBC
[7] = lowest concentration killing 99.9% of original inoculum

| SMILES | MIC ([1]; read-out: MIC) [µg/mL] | MBC ([1]; read-out: MBC) [µg/mL] | MIC [2, 5] [µg/mL] | MBC [2, 6] [µg/mL] | MBC ([3]; Staphylococcus aureus) [µg/mL] | MIC ([3]; Staphylococcus aureus) [µg/mL] | MBC [1] [µg/mL] | IC50 [4] | MBC [2, 7] [µg/mL] | MBC [3, 7] [µg/mL] | MIC [2] [µg/mL] | MBC ([2]; read-out: MBC) [µg/mL] | IC50 ([4]; Homo sapiens, read-out: IC50) [µg/mL] | MIC ([3]; broth dilution, 37°C, triplicate) | MIC [1] [µg/mL] |
| --- | --- | --- | --- | --- | --- | --- | --- | --- | --- | --- | --- | --- | --- | --- | --- |
| COc1cc(=O)oc(C=CC=CC=CC2(C)OC3(C)C(C)OC(C)(C2O)C3O)c1C (stereo not shown) [Compound 5, 10Z-isocitreoviridinol] | 8 (≈ 19.1 µM) | 16 (≈ 38.2 µM) | 64 (≈ 153 µM) | 128 (≈ 306 µM) | 2 (≈ 4.78 µM) | 1 (≈ 2.39 µM) |  |  |  |  |  |  |  |  |  |
| COc1cc(=O)oc(C(O)C=CC=CC=C(C)C2OC3(C)C(C)OC2(C)C3O)c1C (stereo not shown) [Compound 8, Isopenicillstressol] |  |  |  |  |  |  | 8 (≈ 19.1 µM) | above 100 μg/mL | 128 (≈ 306 µM) | 1 (≈ 2.39 µM) |  |  |  |  |  |
| COc1cc(=O)oc(/C=C/C=C/C=C/[C@@]2(C)O[C@]3(C)[C@@H](O)[C@@](C)(O[C@@H]3C)[C@@H]2O)c1C [Compound 3, epicitreoviridinol] | 64 (≈ 153 µM) | 128 (≈ 306 µM) |  |  | 2 (≈ 4.78 µM) | 1 (≈ 2.39 µM) |  |  |  |  | > 128 | > 128 |  |  |  |
| COc1cc(=O)oc(C=CC=CC=CC(C)=CC2(C)OC(C)C(C)(O)C2O)c1C (stereo not shown) [Compound 1, Neocitreoviridin] | 4 (≈ 9.94 µM) | 8 (≈ 19.9 µM) | 64 (≈ 159 µM) | 128 (≈ 318 µM) | 128 (≈ 318 µM) | 64 (≈ 159 µM) |  |  |  |  |  |  |  |  |  |
| COc1cc(=O)oc(C(O)C=CC=CC=C(C)C2OC3(C)C(C)OC2(C)C3O)c1C (stereo not shown) [Compound 7, Penicillstressol] | 4 (≈ 9.56 µM) | 8 (≈ 19.1 µM) | 64 (≈ 153 µM) | 128 (≈ 306 µM) | 1 (≈ 2.39 µM) | 0.5 (≈ 1.19 µM) |  |  |  |  |  |  | > 100 |  |  |
| COc1cc(=O)oc(/C=C/C=C/C=C/[C@@]2(C)O[C@@]3(C)[C@H](O)[C@](C)(O[C@H]3C)[C@@H]2O)c1C [Compound 4, epiisocitreoviridinol] | 64 (≈ 153 µM) | 128 (≈ 306 µM) |  |  | 128 (≈ 306 µM) | 64 (≈ 153 µM) |  |  |  |  | > 128 | > 128 |  |  |  |
| CN(C)[C@@H]1C(O)=C(C(N)=O)C(=O)[C@@]2(O)C(O)=C3C(=O)c4c(O)cccc4[C@@](C)(O)[C@H]3C[C@@H]12 [Tetracycline, reference compound] | 8 (≈ 18 µM) | 16 (≈ 36 µM) | 64 (≈ 144 µM) | 128 (≈ 288 µM) | 4 (≈ 9 µM) | 2 (≈ 4.5 µM) |  |  |  |  |  |  |  | around 2 µg/mL |  |
| COc1cc(=O)oc(/C=C/C=C/C=C/[C@@]2(C)O[C@]3(C)[C@@H](O)[C@@](C)(O[C@@H]3C)[C@H]2O)c1C [Compound 6, citreoviridinol] | 64 (≈ 153 µM) | 128 (≈ 306 µM) |  |  | 8 (≈ 19.1 µM) | 4 (≈ 9.56 µM) |  |  |  |  | > 128 | > 128 |  |  |  |
| COc1cc(=O)oc(C=CC=CC=CC(C)=CC2(C)OC(C)C(C)(O)C2O)c1C (stereo not shown) [Compound 2, citreoviridin] |  |  |  |  |  |  | 16 (≈ 39.8 µM) |  | 128 (≈ 318 µM) | 128 (≈ 318 µM) |  |  |  |  | 8 (≈ 19.9 µM) |

From publication PMC5540946, “Stress-Driven Discovery of Novel Cryptic Antibiotics from a Marine Fungus Penicillium sp. BB1122” (Frontiers in Microbiology, 2017)
